The results in this text go back to patent US20230097157A1, “Bicyclic Pyridin-2-one and pyrimidin-4-one Derivatives Useful As a Factor XIa Inhibitors” (Janssen Pharmaceutica NV, priority 2021, published 2023).

Where two headings read alike, the source gives them in different places. Bounds are passed on as bounds.

One test deals with human plasma kallikrein (Homo sapiens, UniProt P03952). Nature of the test: Kallikrein inhibition assay (FLINT) utilizing a quenched AMC peptide substrate Z-Gly-Pro-Arg-AMC. It counts as biochemical. As to conditions: kinetic (KIN) reads, read-out: Kallikrein KIN Inh IC50. An excerpt: Biological Example 2: Kallikrein Inhibition Assay Utilizing a Quenched AMC Peptide Substrate A fluorescence intensity (FLINT) based assay was used to monitor inhibition of human plasma kallikrein. The peptide substrate, Z-Gly-Pro-Arg-AMC (Purchased from Bachem; Catalog #I-1150) was chosen based on its relatively low KM for kallikrein which enables running the assay at lower substrate concentrations to control background fluorescence.
The Kallikrein FLINT assay was used with the following Z-Gly-Pro-Arg-AMC assay buffer: 50 mM Tris, pH 7.5, 100 mM NaCl, 5 mM CaCl2, 0.1 mg/mL BSA, 0.03% CHAPS. Assay buffer was prepared by mixing all ingredients fresh. 2× Z-Gly-Pro-Arg-AMC peptide substrate was prepared by diluting 10 mM stock into 1× assay buffer for a 100 μM working concentration (50 μM final concentration). The 2× kallikrein stock solution was prepared by diluting 14.76 μM stock in 1× assay buffer for a 4 nM working stock solution (2 nM final concentration).
Test compound(s) were run in an 11-point, 3-fold serial dilution with a final top compound concentration of 1 μM. Final DMSO in assay was 2%. Plasma kallikrein was pre-incubated for 30-minute with compound and then 50 μM substrate was added to initiate the reaction. The assay was run with kinetic (KIN) reads at 5 min intervals over 30 minutes. The time course was linear using 2 nM kallikrein greater than 30 minutes. More specifically, the assay was run as follows: • 100 nL of 0.1 mM test compound was dispensed into black 384-well non-binding Greiner BioOne 784900 plate for 1 μM final concentration; • 5 μL of 1× assay buffer was dispensed to columns 24 (low control) and 5 μL 2× human kallikrein enzyme solution was dispensed to columns 1-23 (column 23 high control); • the plate was centrifuged with a “cover” plate at 500 rpm for 1 min • the plate was pre-incubated for 30 minutes at room temperature with plate covered; • 5 μL of 2× Z-Gly-Pro-Arg-AMC peptide substrate was dispensed into the entire plate, columns 1-24; • the plate was centrifuged with a “cover” plate at 500 rpm for 1 min; • the plate was read monitoring fluorescence intensity on the BMG PHERAStar at room temperature, using fluorescence module 340 nm/440 nm.
(§1) Percent inhibition (IC50) curves were generated per compound tested, and data was analyzed using a 4-parameter logistic fit using GeneData Screener. The relative fluorescence unit (RFU) values were normalized to percent inhibition using the following equation:
% inhibition=((HC−LC)−(compound−LC)/(HC−LC))*100 where LC—low control=mean signal of […] or 100% inhibition of human kallikrein enzyme; HC—high control=mean signal of […]+Z-Gly-Pro-Arg-AMC peptide substrate with DMSO only.
(§2) An 11-point dose response curve for the test compound(s) was generated using GENDATA to determine IC50 value based on the following equation:
Y=Bottom+(Top−Bottom)/(1+10^((log IC50−X)*HillSlope)) where Y is the % inhibition in the presence of X inhibitor concentration, Top=high control=mean signal of human kallikrein enzyme+Z-Gly-Pro-Arg-AMC peptide substrate with DMSO only; Bottom=low control−mean signal of no human kallikrein enzyme or 100% inhibition of human kallikrein enzyme; HillSlope−Hill coefficient; and IC50=concentration of compound with 50% inhibition in relation to top/high control.

The target of another test is Factor XIa (Homo sapiens, UniProt P03951). Nature of the test: Factor XIa inhibition assay (FLINT) utilizing a fluorophore-quencher pair peptide substrate 5Fam-[…]-K5Tamra. It is filed as biochemical. As to conditions: kinetic (KIN) reads; values in nM; read-out: FXIa KIN Inh IC50.
From the text: Biological Example 1: Factor XIa Inhibition Assay Utilizing a Fluorophore-Quencher Pair Peptide Substrate A fluorescence intensity (FLINT) based assay was used to monitor inhibition of Factor XIa. The peptide substrate, 5Fam-[…]-K5Tamra (purchased from New England Peptide) was chosen based on the FXI sequence. Conversion of zymogen FXI to its activated form, FXIa, occurs by proteolytic cleavage by […] at two sites, Arg146 and Arg180. The custom peptide used in this assay was based on the Arg146 cleavage site of FXI. The peptide substrate was designed with a fluorophore-quencher pair, where the fluorescence is quenched until FXIa cleaves the 8-mer peptide after the Arg residue.
The Factor XIa FLINT assay was used with the following 5Fam-[…]-K5Tamra assay buffer: 50 mM Tris, pH 7.5, 100 mM NaCl, 5 mM CaCl2, 0.1 mg/mL BSA, 0.03% CHAPS. Assay buffer was prepared by mixing all ingredients fresh. 5Fam-[…]-K5Tamra peptide substrate was first prepared at 10 mM in 100% DMSO, then diluted to 3 mM in 100% DMSO. Assay buffer was then added directly to the 3 mM stock of substrate to prepare the 30 μM 2× working concentration (15 μM final concentration). The 2× Factor XIa stock solution was prepared by diluting 6.562 μM stock in 1× assay buffer for a […].
Test compound(s) were run in an 11-point, 3-fold serial dilution with a final top compound concentration of 100 nM. Final DMSO in assay was 2%. FXIa was preincubated with compound for 30-minutes and then substrate was added to initiate the reaction. The assay was run with kinetic (KIN) reads at 5 min intervals over 30 minutes. […] More specifically, the assay was run as follows: • 100 nL of 0.01 mM test compound was dispensed into black 384-well non-binding Greiner BioOne 784900 plate for 0.1 μM final concentration; • 5 μL of 1× assay buffer was dispensed to column 24 (low control) and 5 μL 2× Factor XIa solution was dispensed to columns 1-23 (column 23 high control); • the plate was centrifuged with a “cover” plate at 500 rpm for 1 min • the plate was pre-incubated for 30 minutes at room temperature with plate covered; • 5 μL of 2×5Fam-[…]-K5Tamra peptide substrate was dispensed into the entire plate, columns 1-24; • the plate was centrifuged with a “cover” plate at 500 rpm for 1 min; • the plate was read monitoring fluorescence intensity on the BMG PHERAStar at room temperature, using fluorescence module 485 nm/520 nm.
as §1
% inhibition=((HC−LC)−(compound−LC)/(HC−LC))*100 where LC−low control=mean signal of no Factor XIa or 100% inhibition of Factor XIa; HC−high control=mean signal of Factor XIa+5Fam-[…]-K5Tamra peptide substrate with DMSO only.
as §2
Y=Bottom+(Top−Bottom)/(1+10^((log IC50−X)*HillSlope)) where Y is the % inhibition in the presence of X inhibitor concentration, Top=high control=mean signal of Factor XIa+5Fam-[…]-K5Tamra peptide substrate with DMSO only; Bottom=low control−mean signal of no Factor XIa or 100% inhibition of Factor XIa; HillSlope−Hill coefficient; and IC50=concentration of compound with 50% inhibition in relation to top/high control.

Factor XIa, sequence (P03951 388-625 limits assumed): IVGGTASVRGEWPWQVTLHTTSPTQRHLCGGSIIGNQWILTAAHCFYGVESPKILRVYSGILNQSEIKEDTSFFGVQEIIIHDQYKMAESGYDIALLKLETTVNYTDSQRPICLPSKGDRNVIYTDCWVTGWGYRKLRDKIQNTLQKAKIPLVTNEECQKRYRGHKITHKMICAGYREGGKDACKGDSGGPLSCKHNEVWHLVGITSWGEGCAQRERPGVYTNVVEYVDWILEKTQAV
Factor XIa, sequence (P03951 19-387 partner limits assumed): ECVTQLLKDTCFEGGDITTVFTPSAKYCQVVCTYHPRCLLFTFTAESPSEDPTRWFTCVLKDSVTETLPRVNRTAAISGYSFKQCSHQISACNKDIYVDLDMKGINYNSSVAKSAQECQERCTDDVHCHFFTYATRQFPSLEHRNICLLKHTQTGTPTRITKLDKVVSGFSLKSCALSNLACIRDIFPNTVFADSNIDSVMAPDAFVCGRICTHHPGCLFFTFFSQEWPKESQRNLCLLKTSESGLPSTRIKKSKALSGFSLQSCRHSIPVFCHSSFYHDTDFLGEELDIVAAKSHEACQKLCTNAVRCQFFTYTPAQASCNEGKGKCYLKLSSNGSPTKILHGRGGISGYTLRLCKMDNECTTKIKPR
human plasma kallikrein, sequence (P03952 391-638 limits assumed): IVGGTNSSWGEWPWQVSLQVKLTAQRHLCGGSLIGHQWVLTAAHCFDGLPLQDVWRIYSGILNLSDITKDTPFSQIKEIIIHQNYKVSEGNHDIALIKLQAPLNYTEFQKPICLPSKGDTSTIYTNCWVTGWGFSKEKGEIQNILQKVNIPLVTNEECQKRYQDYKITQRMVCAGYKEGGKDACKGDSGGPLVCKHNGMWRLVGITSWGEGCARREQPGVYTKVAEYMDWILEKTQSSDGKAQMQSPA
human plasma kallikrein, sequence (P03952 20-390 partner limits assumed): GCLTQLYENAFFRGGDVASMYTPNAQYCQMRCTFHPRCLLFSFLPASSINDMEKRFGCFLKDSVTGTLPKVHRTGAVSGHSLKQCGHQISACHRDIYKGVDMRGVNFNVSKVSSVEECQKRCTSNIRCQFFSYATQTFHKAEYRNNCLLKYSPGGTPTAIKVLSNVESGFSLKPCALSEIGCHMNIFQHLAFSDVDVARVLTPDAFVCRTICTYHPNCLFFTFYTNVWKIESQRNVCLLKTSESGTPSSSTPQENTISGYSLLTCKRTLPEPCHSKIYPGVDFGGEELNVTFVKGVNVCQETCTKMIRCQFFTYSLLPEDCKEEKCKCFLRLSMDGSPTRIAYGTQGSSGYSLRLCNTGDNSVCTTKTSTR

`O=c1cc(-c2c(-n3cnnn3)ccc(Cl)c2F)nc2n1C(c1nc(F)c(-c3ccnc(CO)c3F)[nH]1)CC21CC1` (racemic) [Example 69, 2′-(3-Chloro-2-fluoro-6-(1H-tetrazol-1-yl)phenyl)-6′-(4-fluoro-5-(3-fluoro-2-(hydroxymethyl)pyridin-4-yl)-1H-imidazol-2-yl)-6′,7′-dihydro-4′H-spiro[cyclopropane-1,8′-pyrrolo[1,2-a]pyrimidin]-4′-one]: the IC50 worked out at 118 nM on human plasma kallikrein (values in nM) and 19.4 nM on Factor XIa.

`C[C@@H]1C[C@@H](c2ncc(-c3ccnc(CO)c3F)[nH]2)n2c1cc(-c1c(-n3cnnn3)ccc(Cl)c1F)cc2=O` (relative stereo) [Example 1, (1R*,3S*)-7-(3-Chloro-2-fluoro-6-(1H-tetrazol-1-yl)phenyl)-3-(5-(3-fluoro-2-(hydroxymethyl)pyridin-4-yl)-1H-imidazol-2-yl)-1-methyl-2,3-dihydroindolizin-5(1H)-one]: the IC50 was 47 nM on human plasma kallikrein (values in nM) and 11 nM on Factor XIa.

On to `C[C@H]1C[C@@H](c2ncc(-c3ccnc(CO)c3F)[nH]2)n2c1cc(-c1c(-n3cnnn3)ccc(Cl)c1F)cc2=O` (relative stereo) [Example 2, (1 S*,3S*)-7-(3-Chloro-2-fluoro-6-(1H-tetrazol-1-yl)phenyl)-3-(5-(3-fluoro-2-(hydroxymethyl)pyridin-4-yl)-1H-imidazol-2-yl)-1-methyl-2,3-dihydroindolizin-5(1H)-one], for which the values for the half-inhibitory concentration (IC50) on human plasma kallikrein (values in nM) and at Factor XIa were 170 nM and 22 nM, respectively.

In the case of `C[C@H]1C[C@@H](c2ncc(-c3ccc(N)nn3)[nH]2)n2c1cc(-c1c(-n3cnnn3)ccc(Cl)c1F)cc2=O` (relative stereo) [Example 10, (1 S*,3S*)-3-(5-(6-Aminopyridazin-3-yl)-1H-imidazol-2-yl)-7-(3-chloro-2-fluoro-6-(1H-tetrazol-1-yl)phenyl)-1-methyl-2,3-dihydroindolizin-5(1H)-one], the values for the IC50 on human plasma kallikrein (values in nM) and on Factor XIa were 345 nM and 18.3 nM, respectively. Turning to `C[C@H]1C[C@H](c2ncc(-c3ccnc(C#N)c3)[nH]2)n2c1cc(-c1c(-n3cnnn3)ccc(Cl)c1F)cc2=O` (relative stereo) [Example 30, 4-(2-((1S,3R)-7-(3-Chloro-2-fluoro-6-(1H-tetrazol-1-yl)phenyl)-1-methyl-5-oxo-1,2,3,5-tetrahydroindolizin-3-yl)-1H-imidazol-5-yl)picolinonitrile], the IC50 was determined as 1200 nM on human plasma kallikrein (unit μM) and 873 nM at Factor XIa. For the molecule `Cc1c(-c2cnc([C@H]3C[C@H](C)c4cc(-c5c(-n6cnnn6)ccc(Cl)c5F)cc(=O)n43)[nH]2)ccnc1C#N` (relative stereo) [Example 31, 4-(2-((1S*,3R*)-7-(3-Chloro-2-fluoro-6-(1H-tetrazol-1-yl)phenyl)-1-methyl-5-oxo-1,2,3,5-tetrahydroindolizin-3-yl)-1H-imidazol-5-yl)-3-methylpicolinonitrile], the IC50 is 635 nM at human plasma kallikrein (values in nM) and 250 nM on Factor XIa. On the same counts, the results for `C[C@H]1C[C@@H](c2ncc(-c3ccnc(C#N)c3)[nH]2)n2c1cc(-c1c(-n3cnnn3)ccc(Cl)c1F)cc2=O` (relative stereo) [Example 32, 4-(2-((1S,3S)-7-(3-Chloro-2-fluoro-6-(1H-tetrazol-1-yl)phenyl)-1-methyl-5-oxo-1,2,3,5-tetrahydroindolizin-3-yl)-1_H-imidazol-5-yl)picolinonitrile] are 90.7 nM and 11.2 nM. As to `Cc1c(-c2cnc([C@@H]3C[C@H](C)c4cc(-c5c(-n6cnnn6)ccc(Cl)c5F)cc(=O)n43)[nH]2)ccnc1C#N` (relative stereo) [Example 33, 4-(2-((1S*,3S*)-7-(3-Chloro-2-fluoro-6-(1H-tetrazol-1-yl)phenyl)-1-methyl-5-oxo-1,2,3,5-tetrahydroindolizin-3-yl)-1H-imidazol-5-yl)-3-methylpicolinonitrile], the 50% inhibitory concentration (IC50) is 152 nM on human plasma kallikrein (values in nM) and 6.8 nM at Factor XIa. Consider `C[C@H]1C[C@@H](c2ncc(-c3ccc(N)nc3Cl)[nH]2)n2c1cc(-c1c(-n3cnnn3)ccc(Cl)c1F)cc2=O` (relative stereo) [Example 57, (1*S,3*S)-3-(5-(6-Amino-2-chloropyridin-3-yl)-1H-imidazol-2-yl)-7-(3-chloro-2-fluoro-6-(1H-tetrazol-1-yl)phenyl)-1-methyl-2,3-dihydroindolizin-5(1H)-one], for which, at human plasma kallikrein (unit μM), the half-inhibitory concentration (IC50) worked out at 3400 nM. `O=c1cc(-c2c(-n3cnnn3)ccc(Cl)c2F)nc2n1C(c1ncc(-c3ccnc(C4(O)CC4)c3F)[nH]1)CC21CC1` (single isomer, unassigned) [Example 75, (R*)-2′-(3-Chloro-2-fluoro-6-(1H-tetrazol-1-yl)phenyl)-6′-(5-(3-fluoro-2-(1-hydroxycyclopropyl)pyridin-4-yl)-1H-imidazol-2-yl)-6′,7′-dihydro-4′H-spiro[cyclopropane-1,8′-pyrrolo[1,2-a]pyrimidin]-4′-one]: the IC50 at human plasma kallikrein (values in nM) came to 97.6 nM. `C[C@H]1CC(c2ncc(-c3ccnc(CN)c3)[nH]2)n2c1cc(-c1c(-n3cnnn3)ccc(Cl)c1F)cc2=O` (stereo in doubt) [Example 39, (1*S,3*S)-3-(5-(2-(Aminomethyl)pyridin-4-yl)-1H-imidazol-2-yl)-7-(3-chloro-2-fluoro-6-(1H-tetrazol-1-yl)phenyl)-1-methyl-2,3-dihydroindolizin-5(1H)-one]: on human plasma kallikrein (unit μM), the IC50 is over 10000 nM. For the molecule `C[C@H]1C[C@@H](c2ncc(-c3ccc(N)nc3Cl)[nH]2)n2c1cc(-c1c(-n3cnnn3)ccc(Cl)c1F)cc2=O` [Example 59, (1S,3S)-3-(5-(6-Amino-2-chloropyridin-3-yl)-1H-imidazol-2-yl)-7-(3-chloro-2-fluoro-6-(1H-tetrazol-1-yl)phenyl)-1-methyl-2,3-dihydroindolizin-5(1H)-one], the half-maximal inhibitory concentration (IC50) at human plasma kallikrein (values in nM) turned out to be 11.6 nM.
